{"source": "paper PMC8983459", "about": "(Molecular cancer therapeutics, 2022)", "key": {"[1]": {"test_system": "22Rv1 tumors", "settings": "cited from earlier work"}, "[2]": {"test_system": "AR nuclear localization", "settings": "cited from earlier work"}, "[3]": {"test_system": "AR", "assay": "Western blot with nucleocytoplasmic fractionation, AR level", "assay_type": "cell-based, human", "settings": "10 nM, 20 h, C4-2, LN95, and 22Rv1"}, "[4]": {"test_system": "DU145 cells", "assay": "Cell proliferation assay, DU145", "assay_type": "cell-based, human", "settings": "DU145, 10 μM, repeat experiment (Supplemental Fig. 2)"}, "[5]": {"test_system": "PC-3 cells", "assay": "Cell proliferation assay, PC-3", "assay_type": "cell-based, human", "settings": "PC-3, 10 μM, repeat experiment (Supplemental Fig. 2)"}, "[6]": {"test_system": "22Rv1 xenograft tumor", "assay": "22Rv1 xenograft tumor study in castrated mice", "settings": "10 mg/kg i.p. every day; (+)-JJ-74-138 compared to enzalutamide p < 0.05"}, "[7]": {"test_system": "PSA expression in 22Rv1 cells (AR activity)", "assay": "PSA ELISA of conditioned medium, 22Rv1 cells", "assay_type": "cell-based, human"}, "[8]": {"test_system": "PSA expression in LN95 cells (AR activity)", "assay": "PSA ELISA of conditioned medium, LN95 cells", "assay_type": "cell-based, human"}, "[9]": {"test_system": "PSA expression in C4-2 cells (AR activity)", "assay": "PSA ELISA of conditioned medium, C4-2 cells", "assay_type": "cell-based, human", "settings": "C4-2, 48 h"}, "[10]": {"settings": "22Rv1, 48 h, DHT 0-1000 nM with 10 μM compound"}, "[11]": {"settings": "LN95, 48 h, DHT 0-1000 nM with 10 μM compound"}, "[12]": {"settings": "DHT 0-1000 nM with 10 μM (+)-JJ-74-138 or 1 or 10 μM enzalutamide"}}, "data": [{"smiles": "CC(C)(c1ccc(OCC(O)CO)cc1)c1ccc(OCC(O)CCl)cc1", "note": "(stereo not drawn) [EPI-001]", "values": [{"measurement": "sensitivity of 22Rv1 tumors", "setting": "[1]", "value": "resistant"}]}, {"smiles": "O=C(CSCc1cnoc1)N1CCN(c2ccccc2)CC1", "note": "[IMTPPE, 2-[(isoxazol-4-ylmethyl)thio]-1-(4-phenylpiperazin-1-yl)ethanone]", "values": [{"measurement": "androgen-independent AR nuclear localization", "setting": "[2]", "value": "inhibited androgen-independent AR nuclear localization"}]}, {"smiles": "C[C@]1(O)CC[C@H]2[C@@H]3CCC4=CC(=O)CCC4=C3C=C[C@@]21C", "note": "[R1881]", "values": [{"measurement": "amount of total AR and nuclear AR level", "setting": "[3]", "value": "increased the amount of total AR, particularly the nuclear AR level"}]}, {"smiles": "CNC(=O)c1ccc(N2C(=S)N(c3ccc(C#N)c(C(F)(F)F)c3)C(=O)C2(C)C)cc1F", "note": "[enzalutamide]", "values": [{"measurement": "cell growth", "setting": "[4]", "value": "minimal inhibitory effect"}, {"measurement": "cell growth", "setting": "[5]", "value": "minimal inhibitory effect"}, {"measurement": "survival (Kaplan-Meier, ad hoc analysis)", "setting": "[6]", "value": "did not differ from the vehicle control"}, {"measurement": "DHT-stimulated PSA expression", "setting": "[7]; 22Rv1, 10 μM, with DHT (Fig. 3A)", "value": "effectively inhibit DHT-stimulated PSA expression"}, {"measurement": "increase of EC50 of DHT induction of PSA", "setting": "[7]; [10]", "value": "~ 10 fold"}, {"measurement": "maximal PSA induction by high DHT dosages", "setting": "[7]; [10]", "value": "alleviated by high doses of DHT"}, {"measurement": "inhibition at 10 µM", "setting": "[8]; Homo sapiens, 48 h, read-out: inhibition of PSA levels", "value": "~20", "unit": "%"}, {"measurement": "DHT-stimulated PSA expression", "setting": "[8]; LN95, 10 μM, with DHT (Fig. 3A)", "value": "effectively inhibit DHT-stimulated PSA expression"}, {"measurement": "increase of EC50 of DHT induction of PSA", "setting": "[8]; [11]", "value": "~ 10 fold"}, {"measurement": "maximal PSA induction by high DHT dosages", "setting": "[8]; [11]", "value": "alleviated by high doses of DHT"}, {"measurement": "increase of EC50 of DHT induction of PSA", "setting": "[9]; [12]", "value": "~ 10 fold"}, {"measurement": "maximal PSA induction by high DHT dosages", "setting": "[9]; [12]", "value": "alleviated by high doses of DHT"}, {"measurement": "inhibition at 10 µM", "setting": "[9]; Homo sapiens, read-out: inhibition of PSA levels", "value": "~70", "unit": "%"}]}, {"smiles": "CC/C(=C(\\c1ccccc1)c1ccc(OCCN(C)C)cc1)c1ccccc1", "note": "[tamoxifen]", "values": [{"measurement": "PSA expression", "setting": "[8]; LN95 cells (Supplemental Fig. 3)", "value": "did not affect PSA expression"}]}]}
